Laboratory results as given in ChEMBL document CHEMBL3751684, “2,3-Dihydrobenzofuran privileged structures as new bioinspired lead compounds for the design of mPGES-1 inhibitors” (Bioorg Med Chem, 2016).
Activity calls are given as the source filed them. The calls are words filed in the database; no cut-off is given here.

Assays:
[1] = target: T1, Prostaglandin E synthase (Homo sapiens, UniProt O14684); assay: Inhibition of PGES-1 in IL-1beta stimulated human A549 cell microsomes using PGH2 as substrate assessed as suppression of PGE2 formation preincubated for 15 mins followed by substrate addition by reversed phase-HPLC analysis
T1 sequence (O14684 whole entry): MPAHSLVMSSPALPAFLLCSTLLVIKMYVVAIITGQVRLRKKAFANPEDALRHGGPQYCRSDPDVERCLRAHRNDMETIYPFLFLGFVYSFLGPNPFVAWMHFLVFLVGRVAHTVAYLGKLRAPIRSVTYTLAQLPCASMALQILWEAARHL

[2] = target: T2, Prostaglandin E synthase (Homo sapiens) (UniProt O14684); assay: Inhibition of PGES-1 in IL-1beta stimulated human A549 cell microsomes using PGH2 as substrate assessed as suppression of PGE2 formation at 10 uM preincubated for 15 mins followed by substrate addition by reversed phase-HPLC analysis
T2 sequence (whole entry): T1 sequence (O14684 whole entry)

SMILES: O=C(/C=C/c1cc(O)c2c(c1)[C@H](C(=O)OCCc1ccccc1)[C@@H](c1ccc(O)c(O)c1)O2)OCCc1ccccc1
- IC50 [1]: 2800 nM

SMILES: COc1cc(/C=C/c2ccc3c(c2)[C@@H](c2cc(OC)cc(OC)c2)[C@H](c2ccc(O)cc2)O3)cc(OC)c1 (racemic)
- inhibition [2]: Active

SMILES: O=C(/C=C/c1cc(O)c2c(c1)[C@@H](C(=O)OCCc1ccccc1)[C@H](c1ccc(O)c(O)c1)O2)OCCc1ccccc1 (racemic) [listing 1 of 2 here]
- IC50 [1]: 2000 nM

SMILES: CCCCOC(=O)/C=C/c1cc(O)c2c(c1)[C@@H](C(=O)OCCCC)[C@H](c1ccc(O)c(O)c1)O2 (racemic)
- IC50 [1]: 2100 nM
- inhibition [2]: Active

SMILES: C=Cc1ccc(/C=C/c2ccc3c(c2)[C@@H](c2ccc(C=C)cc2)[C@H](c2ccc(O)cc2)O3)cc1 (racemic)
- inhibition [2]: inactive

SMILES: O=C(/C=C/c1cc(O)c2c(c1)[C@@H](C(=O)OCCc1ccccc1)[C@H](c1ccc(O)c(O)c1)O2)OCCc1ccccc1 (racemic) [listing 2 of 2 here]
- inhibition [2]: Active

SMILES: CCOC(=O)/C=C/c1cc(O)c2c(c1)[C@@H](C(=O)OCC)[C@H](c1ccc(O)c(O)c1)O2 (racemic)
- IC50 [1]: 3600 nM
- inhibition [2]: Active

SMILES: COC(=O)/C=C/c1cc(O)c2c(c1)[C@@H](C(=O)OC)[C@H](c1ccc(O)c(O)c1)O2 (racemic)
- IC50 [1]: 8500 nM
- inhibition [2]: Active

SMILES: COc1ccc(/C=C/c2ccc3c(c2)[C@@H](c2ccc(OC)cc2)[C@H](c2ccc(O)cc2)O3)cc1 (racemic)
- inhibition [2]: Active

SMILES: COc1cc([C@@H]2Oc3c(OC)cc(/C=C/c4cc(OC)c(OC)c(OC)c4)cc3[C@H]2c2cc(OC)c(OC)c(OC)c2)ccc1O (racemic)
- inhibition [2]: Active

SMILES: O=C(/C=C/c1cc(O)c2c(c1)[C@@H](C(=O)OCCc1ccccc1)[C@H](c1ccc(O)c(O)c1)O2)OCCc1ccccc1
- IC50 [1]: 2100 nM
